What was measured:
estrogen receptor (ER) = molecular target: T1, estrogen receptor (ER) (Homo sapiens, UniProt P03372); details: reference 35; cited from earlier work
T1 sequence (P03372 1-595): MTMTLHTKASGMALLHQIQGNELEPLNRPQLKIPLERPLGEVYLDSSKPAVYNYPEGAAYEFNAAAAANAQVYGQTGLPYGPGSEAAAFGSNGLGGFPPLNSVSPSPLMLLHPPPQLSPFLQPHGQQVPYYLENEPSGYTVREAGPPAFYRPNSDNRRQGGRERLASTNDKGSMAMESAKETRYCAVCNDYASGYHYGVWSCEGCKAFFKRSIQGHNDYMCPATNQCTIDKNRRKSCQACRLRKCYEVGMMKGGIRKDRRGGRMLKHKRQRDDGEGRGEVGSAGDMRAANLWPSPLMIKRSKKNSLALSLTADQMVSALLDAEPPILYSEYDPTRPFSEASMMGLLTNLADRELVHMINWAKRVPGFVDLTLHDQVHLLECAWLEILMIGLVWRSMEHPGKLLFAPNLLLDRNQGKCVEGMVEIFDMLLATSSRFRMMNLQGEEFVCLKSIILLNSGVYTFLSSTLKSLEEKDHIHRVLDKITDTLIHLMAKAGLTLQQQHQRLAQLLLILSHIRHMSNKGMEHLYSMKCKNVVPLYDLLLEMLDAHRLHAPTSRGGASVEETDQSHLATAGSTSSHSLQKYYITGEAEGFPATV

[1] = system: T2, endogenous voltage-gated sodium channels expressed in murine DRG neurons; assay: Whole cell voltage clamp of endogenous sodium currents (INa) in cultured DRG sensory neurons; format: cell-based, mouse
T2 construct: other: waiting for 5 minutes after removal; ND-Tam potency against DRG INa (IC50); other: DRG neurons, −60 mV holding potential; other: 3 μM ND-Tam treatment; other: DR
Procedure: FIG. 1. Tamoxifen metabolites inhibit endogenous voltage-gated sodium channels expressed in murine DRG neurons. A) DIC and fluorescence images of voltage clamped DRG neuron isolated and cultured from an Nav1.8-tomato mouse. Continuity with the patched neuron is indicted by the GFP (Alexa Fluor 488 dye 1 nM) loaded into the glass patch electrode. B) Top, exemplar sodium currents (INa) recorded in control saline and two concentrations of N-desmethyl tamoxifen (ND-Tam) from a voltage-clamped DRG neuron. INa was activated by 0.2 Hz train of 50 ms depolarizations to −10 mV from −100 mV holding potential. Bottom, time course of peak INa inhibition during control conditions and after 5 minutes of extracellular ND-Tam treatment. C) Resulting drug concentration-INa inhibition relationship for ND-Tam fit to the Hill equation. Open symbols represent responses from individual cells and filled symbols represent average response per concentration. Error is equal to S.E.M. (n=11) D) A comparison of the percent INa recovery after 3-10 μM ND-Tam or 1 mM carbamazepine (CBZ) inhibition. INa recovery was assessed after 5 minutes in control saline post drug exposure. Fewer INa recovered from ND-Tam exposure compared to CBZ exposure, 14.3±5.4% and 47.2±9.6%, respectively, and was statistically significant (P=0.03). Error is equal to S.E.M. and the number of cells tested per treatment group is indicated within the parentheses.
Previously, a unique receptor site for tamoxifen analogues within the prokaryotic sodium channel isolated form Magnetococcus marinus (NavMs)^36 (Sula et al) was crystallographically identified. Because drug occupancy of this receptor caused long lasting inhibition of the NavMs INa, the inventors wondered if these properties would translate into effects against sensory neuron Na s which transmit pain signals. Accordingly, =the potency of ND-Tam and 4OH-Tam was tested against endogenously expressed Na s in cultured DRG sensory neurons isolated from Nav1.8-tdTomato mice by conducting whole cell voltage clamp recordings (FIG. 1A, B). Sodium currents were activated by a 0.2 Hz train of −10 mV depolarizations from a holding potential of −100 mV. The externally applied drug effect was determined after three to five minutes of application of each drug concentration (FIG. 1B). […] As discussed in the introduction, total DRG INa is conducted by the Nav1.1, Nav1.6, Nav1.7, Nav1.8 and Nav1.9 subtypes. To determine if there is any specificity in the potency of tamoxifen analogues against Nav subtypes, human orthologues were heterologously expressed in cell lines (HEK and CHO co-expressing hb1 subunits), and conducted voltage-clamp experiments, as previously performed in the DRG neurons.
Dorsal root ganglia were isolated using a modified version of the previously described protocol (PMID: 26864470). All animal procedures were approved by the Institutional Animal Care and Use Committee at the Feinberg Medical School, Northwestern University. The spinal columns of 4-6-week-old […] or Nav1.8-Tomato mice (Nav1.8-Td) were removed and DRG neurons from all spinal levels were isolated for primary culture (PMID: 33827672, PMID: 31351964). The collected DRGs, containing both neuronal and non-neuronal cells, were acutely dissociated in DMEM with collagenase IV (2 mg/mL) for 30 minutes, followed by papain (25 U/mL) for 30 minutes. The cells were then triturated, filtered through a 40 μm cell strainer to remove non-dissociated cells, and washed with DMEM. The DRGs were resuspended in 70 μL of pre-warmed growth medium (DMEM F12+Glutamax supplemented with 0.5% FBS, 0.5% penicillin/streptomycin, 1% N-2 supplement, and β-NGF ([…]) added on the day of use) and plated on poly-l-lysine (10 mg/mL) and laminin (25 μg/mL) prepared coverslips. The DRGs were incubated at 37° C. for 2-4 hours before more growth medium was added to the wells. […]

IC50 ([1]; DRG neurons, −100 mV holding potential, 0.2 Hz train of −10 mV depolarizations, read-out: half maximal potency of INa inhibition (IC50)): 1.7 µM
Structure (SMILES): CC/C(=C(\c1ccccc1)c1ccc(OCCNC)cc1)c1ccccc1 [ND-Tam, 2-[4-[(Z)-1,2-diphenylbut-1-enyl]phenoxy]-N-methylethanamine]
affinity for the ER, times lower than 4OH-Tam (estrogen receptor (ER)): ~100 times
block of the total INa ([1]; 3 μM ND-Tam treatment): ≈ 45%
change in the half-maximal activation of conductance (GV1/2) ([1]; 3 μM ND-Tam treatment): No change
voltage-dependence of inactivation (V1/2) after drug treatment ([1]; ND-Tam (3 μM), control −47.6±0.4 mV): −51.9±0.4 mV
half-maximal conductance-voltage relationship (V1/2) ([1]; ND-Tam conditions (3 μM), control −38.3±0.3 mV): −37.7±0.4 mV
shift in voltage dependence of inactivation ([1]; after 3 μM ND-Tam treatment, P=0.01): −8 mV
inhibition of sodium currents recorded from DRG neurons (in words) ([1]; tamoxifen analogs and fragments, FIG. 7B): inhibited sodium currents
INa that did not recover after removing drug from the bath ([1]; waiting for 5 minutes after removal): 86±5%
increase in potency when neuron membranes were held at more depolarizing potentials ([1]; −40, −60 and −100 mV holding potentials): 15-44 ×
